Test results: patent US6623933B1 (priority 1999, dated 2003)
Structures can show the parent of a compound that is named as a salt. Where two headings read alike, the source gives them in different places.

How the values were obtained:
[1] = system: NMDA receptor (chick spinal cord neurons); conditions: Park-Chung et al. 1997; cited from earlier work
NR1100 NMDA receptor = target: T1, NR1100 NMDA receptor (Rattus norvegicus, UniProt P35439); assay: NMDA-induced currents, Xenopus oocytes injected with NR1100 cRNA only, Example 1; format: cell-based
T1 construct: expressed in transfected cells; host or cells: Xenopus oocytes injected with NR1100 cRNA only
Source text: Plasmids were obtained from the following individuals: Dr. Suzanne Zukin (Albert Einstein College of Medicine, Bronx, N.Y.), NR1100; Dr. Shigetada Nakanishi (Kyoto University Faculty of Medicine, Kyoto, Japan), NR2A; Dr. Stephen Heinemann (Salk Institute, San Diego, Calif.), GluR1 (flop), GluR3 (flop), and GluR6. Plasmids were linearized with BamH1 (NR1100), XhoI (NR2A, GluR1, GluR3) or XbaI (GluR6) prior to in vitro transcription with T3 (GluR1, GluR3, GluR6) or T7 (NR1100, NR2A) RNA polymerase using the Message Machine kit (Ambion, Austin, Tex.). […] RNA solutions (50-70 nl) were injected into oocytes for delivery of NR1100 (5 ng), NR1100:NR2A (1:10 ng), GluR1 (5 ng). GluR3 (5 ng), or GluR6 (20 ng). Oocytes were incubated in ND96 at 18-20° C. for 3-7 days prior to electrophysiological recording.
Steroid solutions were prepared as 70-100 mM frozen stocks in dimethyl sulfoxide (DMSO). The final DMSO concentration of all recording solutions was between 0.1% to 0.5% and was constant within an experiment.
Perfusion control and data acquisition were carried out using an automated oocyte electrophysiology workstation that was developed for the rapid collection of concentration-response data and real-time waveform analysis (Yaghoubi et al., Soc. Neurosci. Abstr. 20: 1109 (1995)). This system is implemented on a Macintosh IIci computer (Apple Computer, Cupertino, Calif.) equipped with MacA-DIOS II data acquisition and control hardware (GW Instruments, Somerville, Mass.). Drug application is controlled by the computer through a series of valves, using custom-written software based on the SuperScope II development environment, improving the efficiency and reproducibility of data collection. Experiments were carried out using an Axoclamp-2A voltage clamp amplifier (Axon Instruments, Foster City, Calif.) in two-electrode voltage clamp mode. Intracellular microelectrodes (1-3 MΩ) were filled with 3 M KCl. […] Membrane potential was clamped at −60 to −70 mV and stepped to −100 mV at the start of data acquisition unless otherwise stated. […] Current and voltage recordings were digitized at 100 Hz for analysis. GluR6 injected oocytes were treated for 10 min with 10 μg/ml concanavalin A to prevent fast desensitization.
Results are expressed as mean±S.E.M. Statistical comparisons were made using Student's t-test.

[2] = system: primary cultures of rat hippocampal neurons; assay: NMDA-induced increase in [Ca2+]i, Fluo-3 AM; format: cell-based; conditions: 5 μM NMDA; steroid 100 μM (3α5β 50 μM)
Procedure: Principally neuronal cultures were prepared from hippocampal tissue of fetal Sprague-Dawley rats on day 18 of embryonic development, as previously described (Brewer et al., Brain Research 494: 65-74 (1989)). Briefly, hippocampal cells were dissociated by trituration in Ca^2+/Mg^2+-free Hank's basic salt solution (Gibco) supplemented with 4.2 mM bicarbonate, 1 mM sodium pyruvate, 20 mM HEPES, 3 mg/ml bovine serum albumin (BSA). Dissociated cells were then pelleted by centrifugation (500×g, 4 min). […] Cells were then plated onto poly-L-lysine-coated 24-well culture dishes (Nunclon) at a density of 15,000 cell/cm^2 and maintained in a humidified atmosphere containing 5% CO2/95% air at 37° C. After 48 h, nonneuronal cell division was inhibited by a 48 h exposure to 1 μM cytosine arabinoside. Cultures were subsequently maintained in serum-free DMEM plus defined components and were used for experiments 16 to 24 days after plating.
DMSO was also added to controls to maintain a constant final DMSO concentration of […].
All data are expressed as mean±standard error of the mean. Statistical significance was evaluated using 95% confidence limits unless otherwise noted.

NR1/NR2B (NR1100) = NR1/NR2B (NR1100) (Rattus norvegicus, UniProt P35439+Q00960); assay: cell-based
Chain of NR1/NR2B (NR1100) (Q00960 27-1482, other chains not shown): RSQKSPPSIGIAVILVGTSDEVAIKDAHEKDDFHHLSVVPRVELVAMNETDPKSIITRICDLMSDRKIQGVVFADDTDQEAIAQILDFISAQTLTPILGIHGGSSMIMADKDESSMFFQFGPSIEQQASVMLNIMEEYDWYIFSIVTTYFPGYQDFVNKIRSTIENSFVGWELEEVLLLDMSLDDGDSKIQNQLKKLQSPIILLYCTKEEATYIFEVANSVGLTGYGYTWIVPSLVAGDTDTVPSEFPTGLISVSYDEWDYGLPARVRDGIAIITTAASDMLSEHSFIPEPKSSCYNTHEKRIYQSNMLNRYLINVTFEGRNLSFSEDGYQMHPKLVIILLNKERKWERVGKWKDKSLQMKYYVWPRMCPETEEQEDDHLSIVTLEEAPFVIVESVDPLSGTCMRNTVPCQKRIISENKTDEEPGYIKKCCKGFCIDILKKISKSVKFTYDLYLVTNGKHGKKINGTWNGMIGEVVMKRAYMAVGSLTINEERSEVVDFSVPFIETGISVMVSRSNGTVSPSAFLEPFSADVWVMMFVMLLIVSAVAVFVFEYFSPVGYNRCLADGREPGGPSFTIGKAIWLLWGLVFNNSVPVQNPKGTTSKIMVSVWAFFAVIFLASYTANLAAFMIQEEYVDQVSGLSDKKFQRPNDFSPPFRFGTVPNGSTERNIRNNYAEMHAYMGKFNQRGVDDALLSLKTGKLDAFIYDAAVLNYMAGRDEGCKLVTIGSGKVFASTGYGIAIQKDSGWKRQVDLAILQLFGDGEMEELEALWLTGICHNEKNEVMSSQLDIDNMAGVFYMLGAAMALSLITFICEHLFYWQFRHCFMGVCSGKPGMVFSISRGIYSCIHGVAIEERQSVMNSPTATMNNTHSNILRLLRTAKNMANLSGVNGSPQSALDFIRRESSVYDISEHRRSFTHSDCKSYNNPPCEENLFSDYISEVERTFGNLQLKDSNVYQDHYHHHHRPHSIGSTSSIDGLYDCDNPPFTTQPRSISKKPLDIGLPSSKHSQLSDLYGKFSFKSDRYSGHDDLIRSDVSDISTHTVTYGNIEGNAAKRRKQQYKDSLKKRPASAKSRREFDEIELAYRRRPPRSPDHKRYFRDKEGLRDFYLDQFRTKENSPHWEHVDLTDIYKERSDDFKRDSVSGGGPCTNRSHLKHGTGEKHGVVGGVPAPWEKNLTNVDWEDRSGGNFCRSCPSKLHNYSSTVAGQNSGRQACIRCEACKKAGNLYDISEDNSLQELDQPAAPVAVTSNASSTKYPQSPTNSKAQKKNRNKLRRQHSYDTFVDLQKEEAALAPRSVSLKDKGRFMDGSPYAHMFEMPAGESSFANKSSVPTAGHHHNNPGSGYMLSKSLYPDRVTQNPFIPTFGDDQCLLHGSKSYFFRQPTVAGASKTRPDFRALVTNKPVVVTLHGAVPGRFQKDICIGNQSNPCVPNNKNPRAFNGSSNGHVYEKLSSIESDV
Source text: Plasmids containing the NR1100 (NR1G) and NR2A cDNA inserts were kindly provided by Dr. Nakanishi (Kyoto University Faculty of Medicine, Kyoto, Japan). Plasmids containing the NR2B, NR2C and NR2D cDNA inserts were kindly provided by Dr. P. Seeburg (Heidelberg University, Heidelberg, Germany). Plasmids were linearized with appropriate restriction enzyme prior to in vitro transcription using the Message Machine kit (Ambion, Inc., Austin, Tex.).
Female, oocyte-positive Xenopus laevis frogs were purchased from Xenopus I (Dexter, Mich.). […] Oocytes were injected with 50 nL of RNA solutions using an electronic microinjector (Drummond Inc., Broomall, Pa.). […] The injected oocytes were used for experiments following 1-5 days of incubation in Barth's solution at 18-20° C.
The microelectrodes were fabricated from borosilicate glass capillaries with a programmed puller (Sutter Instrument Co., Calif.). Microelectrode resistance was 1-3 MΩ_when filled with 3 M KCl.
Except where otherwise stated, oocytes were clamped at a holding potential of −70 mV during data acquisition. The membrane current was filtered at 500 Hz and sampled at 100 Hz. Drugs were applied using a gravity-driven external perfusion system. The working volume of the recording chamber was 30 μl and the rate of the perfusion was 50 μl/sec. The drug application lasted 10 sec and was followed by 60 s wash. Data acquisition and external perfusion were controlled using custom-written software implemented in the SuperScope II development environment (GW Instruments, Mass.). All experiments were performed at room temperature of 22-24° C. Peak or steady-state current measurements were normalized and expressed as a fraction of the peak or steady-state control current measurements, which were performed before and after application of every single concentration of agonists or steroids.
Concentration-response data were analyzed by nonlinear regress ion using the logistic equation Response=Emax/(1+(EC50/c)^nH), where c is concentration, Emaxis the maximum response, nHis the Hill coefficient. The data are presented as mean±SEM. EC50values are averaged as logarithms (De Lean et al., Am. J. Physiol. 235: E97-E102 (1978))±the SEM of the log EC50. […] The pooled data were simultaneously fitted to the logistic equation, either with Emax and EC50 constrained to be identical in the presence and absence of PS, or allowing one or both to vary independently. […] This was regarded as indicating a significant treatment effect of PS, but the change in EC50and Emaxwas not considered significant. […] No attempt was made to test the generally small changes in nHfor statistical significance.

wild-type NR1a/NR2A = target: T2, wild-type NR1a/NR2A (Rattus norvegicus, UniProt P35439+Q00959); assay: NMDA-induced currents, Xenopus oocytes, Example 5; format: cell-based; conditions: 100 uM steroid, 300 uM NMDA, 50 uM Glycine
T2 construct: expressed in transfected cells; host or cells: Xenopus laevis oocytes injected with in vitro transcribed mRNA
Procedure: Plasmids were linearized with appropriate restriction enzyme prior to in vitro transcription using the Message Machine kit (Ambion, Inc., Austin, Tex.).
Female, oocyte positive Xenopus laevis frogs were purchased from Xenopus I (Dexter, Mich). […] Oocytes were injected with 50 nL of RNA solutions using an electronic microinjector (Drummond Inc., Broomall, Pa.). […] The injected oocytes were used for experiments following 1-5 days of incubation in Barth's solution at 18-20° C.
The microelectrodes were fabricated with a programmed puller (Sutter Instrument Co., Calif.) from borosilicate glass capillaries and were filled with 3 M KCl solution. The resistance of filled microelectrodes was in the range of 1-3 MΩ. […] If not mentioned otherwise, during data acquisition oocytes were clamped at a holding potential of −70 mV. The membrane current was filtered at 500 Hz and sampled at 100 Hz. Drugs were applied using a gravity driven external perfusion system. The working ,volume of the recording chamber was 30 μl and the rate of the perfusion was 50 μl/sec. The drug application lasted 10 sec and was followed by a 60 sec wash. The data acquisition and external perfusion control were done using the SuperScopeII software package (GW Instruments, Mass.). All experiments were performed at room temperature (22-24° C.). […] The data are presented as mean±S.E.M. with number of experiments in parentheses.

[3] = system: primary cultures of rat hippocampal neurons; assay: NMDA-induced neuronal death, trypan blue exclusion; format: cell-based
NR1100/NR2B = target: T3, NR1100/NR2B (Rattus norvegicus, UniProt P35439+Q00960); assay: NMDA receptor currents in Ba-Ringer, Xenopus oocytes, Example 3; format: cell-based
T3 construct: expressed in transfected cells; host or cells: Xenopus oocytes injected with RNA
T3 sequence (Q00960 27-1482, other chains not shown): as above

NR1011/NR2B = target: T4, NR1011/NR2B (Rattus norvegicus, UniProt P35439+Q00960); assay: as above; format: cell-based
T4 construct: expressed in transfected cells; host or cells: Xenopus oocytes
T4 sequence (Q00960 27-1482, other chains not shown): as above

[4] = acute 15 min NMDA exposure, +100 μM 3α5βS
[5] = acute 15 min NMDA exposure, DMSO vehicle
[6] = chronic 16 hour NMDA exposure, +100 μM 3α5βS
[7] = chronic 16 hour NMDA exposure, DMSO vehicle

Compound: CC(=O)[C@H]1CC[C@H]2[C@@H]3CC[C@@H]4C[C@H](OS(=O)(=O)O)CC[C@]4(C)[C@H]3CC[C@]12C [3α5βS, 3α5β-pregnanolone sulfate]
- modulation of NMDA-induced current [1]: strong inhibitors
- EC50 (NR1100 NMDA receptor): 57 µM
- reduction of NMDA-induced rise in [Ca2+]i [2]: 32±5%
- EC50 (NR1/NR2B (NR1100)): 38 µM
- Emax (NR1/NR2B (NR1100); read-out: 3α5βS Emax (% Change)): -82 ± 1%
- percent decrease in maximum inward current (wild-type NR1a/NR2A): 45.49±5.76%
- EC50 ([3]; Rattus norvegicus, Hippocampal neuron, read-out: 3α5βS EC50, inhibition of NMDA-induced neuronal death): 45 µM
- 3α5βS nH, inhibition of neuronal death ([3]; acute 30 μM NMDA exposure): 2.5
- maximal inhibition (Imax) of cell death ([3]; acute 30 μM NMDA exposure): 97%
- inhibition of NMDA-induced neuronal death ([3]; acute 30 μM NMDA, steroid 100 μM (3α5β 50 μM)): nearly eliminates the toxic effects

Compound: CN[C@H](CC(=O)O)C(=O)O [NMDA, N-methyl-D-aspartate]
- NMDA Emax, neuronal death [3, 4]: 63%
- NMDA nH, neuronal death [3, 4]: 1.8
- NMDA Emax, neuronal death [3, 5]: 80%
- NMDA nH, neuronal death [3, 5]: 2.1
- NMDA Emax, neuronal death [3, 6]: 70%
- NMDA nH, neuronal death [3, 6]: 2.0
- NMDA Emax, neuronal death [3, 7]: 86%
- NMDA nH, neuronal death [3, 7]: 1.9
- EC50 ([3]; read-out: NMDA EC50 for neuronal death, acute 15 min NMDA exposure, +100 μM 3α5βS): 71 µM
- EC50 ([3]; read-out: NMDA EC50 for neuronal death, acute 15 min NMDA exposure, DMSO vehicle): 28 µM
- EC50 ([3]; read-out: NMDA EC50 for neuronal death, chronic 16 hour NMDA exposure, +100 μM 3α5βS): 15 µM

Compound: pregnenolone sulfate [PS]
- PS Emax (NR1100/NR2B): 1.02 ± 0.10
- PS nHill (NR1100/NR2B): 1.42 ± 0.11
- maximum potentiation of NMDA induced current (NR1100 NMDA receptor; NR1100 cRNA only): 114%
- steroid Emax (NMDA-induced current relative to control) (NR1100 NMDA receptor; NR1100 cRNA only, 300 μM NMDA): 2.14
- PS Emax (NR1011/NR2B): 0.78 ± 0.14
- PS nHill (NR1011/NR2B): 1.29 ± 0.19
